Experimental findings from patent publication US20230126447A1, “OCULAR DRUG DEPOT FOR COMPLEMENT-MEDIATED DISORDERS” (priority 2020, published 2023) are described below.

The data set can be described thus: QWBA tissue distribution of [14C] Compound 1, pigmented Long-Evans rats (PO, IV). The conditions noted are these: male LE rats, 20 mg/kg PO. It is filed as in vivo. Here is the method: This study was conducted to determine the tissue distribution of drug-related radioactivity following a single oral (PO) (20 mg/kg) or intravenous (IV) (5 mg/kg) administration of [^14C]
Ten adult male pigmented Long-Evans (LE) rats (Group 1), 1 adult male LE rat (Group 2), and 3 albino Wistar Han (WH) rats (Group 3) received a single oral 20 mg/kg (Groups 1 and 3) or IV 5 mg/kg (Group 2) dose of [^14C] […] The formulation was prepared at a target dose of 5 mg (IV) or 20 mg (PO) […]
The carcasses were frozen in hexane dry-ice and stored at or below −20° C. prior to processing for QWBA. Each carcass was embedded, cut into sagittal sections, and mounted for QWBA. […] The lower limit of quantitation was 0.105 μg equiv/g.

Turning to `CC(=O)c1nn(CC(=O)N2C[C@H](F)C[C@H]2C(=O)Nc2cccc(Br)n2)c2ccc(-c3cnc(C)nc3)cc12` [Compound 1, (2S,4R)-1-(2-(3-Acetyl-5-(2-methylpyrimidin-5-yl)-1H-indazol-1-yl)acetyl)-N-(6-bromopyridin-2-yl)-4-fluoropyrrolidine-2-carboxamide], the “Concentration of radioactivity at Tmax, adrenal gland cortex” value is given as 33.5 μg equiv/g; the “Concentration of radioactivity at Tmax, liver” value is recorded as 52.0 μg equiv/g; the “Concentration of radioactivity at Tmax, small intestine” value stood at 77.9 μg equiv/g; the “Concentration of radioactivity at Tmax, stomach” value worked out at 374 μg equiv/g. The “Concentration of radioactivity at Tmax, tissues with the lowest concentrations (brain, spinal cord, bone, testis, lens of the eye)” value is reported as below 1.00 μg equiv/g; the “Concentration of radioactivity at Tmax, urinary bladder” value came out at 54.2 μg equiv/g; the “Concentration of radioactivity at Tmax, white adipose” value is 21.1 μg equiv/g; the “t1/2, eye uvea” value came out at 24 days. The “t1/2, liver” value stood at 2.02 days and the “t1/2, pigmented skin” value was 19.7 days. Also, the “Concentration of radioactivity at Tmax, bile” value (1 h) stood at 232 μg equiv/g. For the same compound, the “Highest concentration of radioactivity in blood” value (1 h post-dose) was 5.28 μg equiv/g. For the setting “4 h”, the “Concentration of radioactivity at Tmax, urine” value came to 66.2 μg equiv/g. The “Concentration of radioactivity in blood” value (8 h post-dose) was determined as 0.184 μg equiv/g. Besides, the “Tissues with quantifiable concentrations at 672 h” value (672 h) was “Only eye (uvea) and pigmented skin”.
